Five compounds from US10562893B2, “Benzimidazoles derivatives as Tec kinases family inhibitors” (GB005, Inc., priority 2015, dated 2020) can be followed below.

The test system of one assay is Human PBMCs. The experiment in a line: CD3/CD28 mediated PBMC proliferation assay. In kind it is cell-based. To be noted: proliferation of human PBMCs stimulated with anti-CD3 and anti-CD28, 72 hours, Cell Titer-Glo. In short, it runs like this:
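PBMCs pre-treated 30 min with compound, then stimulated on plate-bound anti-CD3 (coated at 5 μg/mL) plus soluble anti-CD28 (2 μg/mL final) for 72 h at 37 °C. Proliferation measured as ATP by CellTiter-Glo; EC50 versus vehicle controls from dose-response curves.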

Assay [1] has as its system Jurkat human acute T cell leukemia cells. Put plainly: Jurkat IL-2 release assay. In kind it is cell-based. As to conditions: IL-2 release from Jurkat cells stimulated with anti-CD3 and anti-CD28, 48 hours, ELISA. In outline: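 Jurkat cells were pre-treated with compound curves 30 min at 37°C, then stimulated on plate-bound anti-CD3 (coated at 10 μg/mL) plus 1 μg/mL soluble anti-CD28 for 48 h. IL-2 in supernatant quantified by ELISA; EC50 from dose-response against vehicle-treated controls.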
In general terms: In an ELISA, binding on a coated surface is turned into a signal by an enzyme label.

For another assay, the target named is Tec kinase (Homo sapiens (Human), UniProt P42680). The experiment in a line: Tec kinase inhibition assay. It counts as biochemical. As to conditions: micro-fluidic detection, 3 hours at 25° C. Here is the method: The in vitro kinase assays were performed at Nanosyn utilizing micro-fluidic detection technology. The test compounds were serially pre-diluted in DMSO and added, by the acoustic dispensing (Labcyte® 550), directly to 384well assay plates into 10 uL of a buffer with enzyme comprising: 100 mM HEPES, pH7.5, 5 mM MgCl2, 0.1% bovine serum albumin, 1 mM DTT, 0.01% Triton X-100 and the enzyme. Final DMSO concentration was maintained at 1% in all samples, including the controls. The reactions were initiated by addition of ATP (to the specified concentration) and the fluorescently labeled peptide substrate to a final concentration of 1 uM, and incubated for 3 hours at 25° C. Following incubation, the reactions were quenched by addition of 40 μL of termination buffer (100 mM HEPES, pH7.5, 0.01% Triton X-100, 50 mM EDTA). Terminated plates were analyzed using Caliper LabChip® 3000 microfluidic electrophoresis instrument (Caliper Life Sciences/Perkin Elmer). The enzymatic modification of the peptide substrate (phosphorylation) results in a change of net charge enabling electrophoretic separation of product from substrate. As substrate and product are separated by electrophoresis, two peaks of fluorescence are observed. Change in the relative fluorescence intensity of the substrate and product peaks was the parameter measured, reflecting enzyme activity. In the presence of inhibitor, the ratio between product and substrate is altered: signal of the product decreases, while the signal of the substrate increases. Activity in each test sample was determined as the product to sum ratio (PSR): […], where P is the peak height of the product and S is the peak height of the FAM-cAMP substrate. For each compound, enzyme activity was measured at 12 concentrations spaced by 3× dilution intervals. Negative control samples (0%-inhibition in the absence of inhibitor, DMSO only) and positive control samples (100%-inhibition, in the absence of enzyme or in the presence of control inhibitor) were assembled in replicates of four and were used to calculate %-inhibition values in the presence of compounds. Percent inhibition (Pinh) was determined using the following equation: Pinh=(PSR0%−PSRinh)/(PSR0%−PSR100%)*100, where PSRinh is the product sum ratio in the presence of inhibitor, PSR0% is the product sum ratio in the absence of inhibitor and PSR100% is the product sum ratio in 100%-inhibition control samples. To determine IC50 values, the inhibition curves (Pinh versus inhibitor concentration) were fitted by 4 parameter sigmoid dose-response model using XLfit software (IDBS).
Sequence of Tec kinase (P42680 whole entry): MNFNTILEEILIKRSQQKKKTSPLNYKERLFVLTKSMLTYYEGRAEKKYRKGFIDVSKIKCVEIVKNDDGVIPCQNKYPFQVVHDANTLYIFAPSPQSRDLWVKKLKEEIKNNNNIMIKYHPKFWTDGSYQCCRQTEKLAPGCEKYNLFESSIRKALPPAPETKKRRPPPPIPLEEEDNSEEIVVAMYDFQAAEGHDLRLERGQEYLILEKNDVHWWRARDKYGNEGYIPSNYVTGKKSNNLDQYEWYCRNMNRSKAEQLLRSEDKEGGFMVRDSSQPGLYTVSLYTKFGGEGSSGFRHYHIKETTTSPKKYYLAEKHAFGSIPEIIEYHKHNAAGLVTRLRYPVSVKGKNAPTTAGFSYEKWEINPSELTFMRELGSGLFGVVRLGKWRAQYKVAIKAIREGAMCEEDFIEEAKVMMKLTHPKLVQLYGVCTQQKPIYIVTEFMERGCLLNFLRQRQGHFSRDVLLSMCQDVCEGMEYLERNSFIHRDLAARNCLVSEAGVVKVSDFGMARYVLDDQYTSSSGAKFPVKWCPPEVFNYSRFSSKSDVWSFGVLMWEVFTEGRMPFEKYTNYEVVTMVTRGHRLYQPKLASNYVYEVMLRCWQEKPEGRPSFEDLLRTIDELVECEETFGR

In the case of `C=CC(=O)Nc1cccc(-n2c(NC(=O)c3ccc(C(F)F)s3)nc3cc(CN[C@@H](C)C(C)(C)C)ccc32)c1` [Compound 2], the EC50 in the assay on Human PBMCs is 10 to 100 nM; in assay [1], < 10 nM; at Tec kinase, 10 to 100 nM.
On to `C=CC(=O)Nc1cccc(-n2c(NC(=O)c3cccc(C#N)c3)nc3cc(CN[C@@H](C)C(C)(C)C)ccc32)c1` [Compound 9], for which the EC50 (in the assay with Human PBMCs; in assay [1]; at Tec kinase) was 10 to 100 nM throughout.
For `C=CC(=O)Nc1cccc(-n2c(NC(=O)c3ccc(-c4cnco4)s3)nc3cc(CN[C@@H](C)C(C)(C)C)ccc32)c1` [Compound 25], the EC50 (in the assay on Human PBMCs; in assay [1]; on Tec kinase) was < 10 nM in each case.
`C=CC(=O)Nc1cccc(-n2c(NC(=O)c3ccnn3C)nc3cc(CN[C@@H](C)C(C)(C)C)ccc32)c1` [Compound 28]: the results for the EC50 (in the assay with Human PBMCs; in assay [1]; on Tec kinase) were 10 to 100 nM, < 10 nM and 10 to 100 nM, respectively.
On to `C=CC(=O)Nc1cccc(-n2c(NC(=O)c3ccno3)nc3cc(CN[C@@H](C)C(C)(C)C)ccc32)c1` [Compound 38], for which the EC50 in the assay on Human PBMCs is 10 to 100 nM; in assay [1] it was < 10 nM; on Tec kinase it was 10 to 100 nM.

Broadly, the EC50 is the concentration at which the effect is half-maximal. The low end stands for a more potent agent, the high end for a less potent agent.
